Data from article PMC11571215, “Optimization of Antiproliferative Properties of Triimine Copper(II) Complexes” (Journal of Medicinal Chemistry, 2024).

Assays:
[1] = test system: HCT116-DoxR cells; test: Cellular senescence (beta-galactosidase, flow cytometry); assay type: cell-based, human; details: 48 h at IC50, vs 0.1% DMSO
Experimental: The percentage of senescent cells was assessed using the Senescence Assay Kit (Abcam), enabling the quantification of beta-galactosidase activity through flow cytometry. […] A 0.1% (v/v) DMSO solution served as vehicle control, and Dox and Cis were used as positive controls.
In this assay, a senescence assay kit (Beta Galactosidase, Fluorescence) (ab228562; Abcam, UK) was used. HCT116-DoxR cells were seeded in 24-well plates at a density of 5 × 10^5 cells/well and incubated for 24 h, at the conditions mentioned before. […] Additionally, 0.1% (v/v) DMSO was used as a vehicle control, and 6 μM Dox and 5 μM Cis were used as positive controls. At the end of the incubation period, the medium was removed, and 500 μL of DMEM with 1.5 μL of Senescence dye was added to each well. The plates were incubated for an additional 1–2 h at 37 °C. Subsequently, the well contents were removed, and the cells were washed twice with Wash Buffer (provided by the kit). The cells were trypsinized with TrypLE Express and then centrifuged for 5 min at 500 × g. After centrifugation, the cells were washed with the wash buffer, centrifuged, and resuspended again in 500 μL of Wash Buffer. The samples were subsequently analyzed by an Attune acoustic focusing flow cytometer (Life Technologies, Carlsbad, USA), and the results were analyzed by the respective software (Attune Cytometric software).

[2] = test system: calf-thymus DNA (ctDNA); test: UV-vis absorption titration with ctDNA; assay type: binding; details: hyperchromic effect at ∼350 nm
Experimental: For both Cu(II) complexes, the addition of DNA results in a gradual increase in the absorption intensity of the band at ∼350 nm, while the band position remains the same (Figure 14).
These values fall in the range reported previously for related Cu(II) complex with 4′-((naphthalen-2-yl)methoxy)-2,2′:6′,2″-terpyridine[21] that was proposed as an “outside binder”.
Absorption titration experiments were conducted by maintaining the complex concentration constant (25 μM) and varying the concentration of ctDNA (0–100 μM). Blank ctDNA samples were used as a reference.

[3] = Stability in solution by UV-vis spectrophotometry; assay type: physicochemical; details: c = 25 μM, spectra every 4 h for 72 h
Experimental: The stability of Cu1a-d and Cu2a-d was assessed using a spectrophotometric method. Absorption spectra of the Cu(II) complexes were collected every 4 h for 72 h in DMSO and phosphate-buffered saline (PBS) solutions (c = 25 μM) (see Figure S6 and Table S9 in ESI). The diluted solutions in a water-based medium were prepared from concentrated (50 mM) stock solutions in DMSO. […] In contrast, Cu(II) complexes with dtpy-based ligands (Cu2a–d) decomposed within a few minutes in DMSO, showing UV–vis spectra almost overlapping with those of the free ligands (Figure S7). […] In PBS, compounds Cu2a–d tended to aggregate rapidly due to the release of the organic ligand, which is insoluble in water.
Infrared spectra were performed with the KBr technique on a Nicolet iS5 FT-IR spectrophotometer in the range of 4000–400 cm^–1. Elemental analyses (C, H, N) were recorded on a Perkin–Elemer CHN–2400 analyzer. HR-ESI-MS analyses were performed on a maXis Impact Q-TOF mass spectrometer (Bruker Daltonics) or a Xevo G2 Q-TOF mass spectrometer (Waters Corporation, USA), both with an ESI ion source operating in positive-ion mode. Samples were diluted in LC-MS grade acetonitrile. The accurate mass and composition for the molecular ion adducts were calculated using Data Analysis 4.1 software (Bruker, Germany) or MassLynx software (Waters). […] The eluted compounds were monitored in the range 190–400 nm. […]

SMILES | senescent cells [1] | mode of interaction with DNA [2] | stability/solubility in PBS [3]
[Cl][Cu-3]12([Cl])[n+]3ccccc3-c3cc(-c4cccc5ccccc45)cc([n+]31)-c1cccc[n+]12 [Cu1a] | increase in the percentage of senescent cells | nonintercalative interactions with DNA, most likely via groove binding | no solubility issues were observed
[Cl][Cu-3]12([Cl])[n+]3ccccc3-c3cc(-c4ccc5ccccc5c4)cc([n+]31)-c1cccc[n+]12 [Cu1b] | highest quantity of cells in senescence | nonintercalative interactions with DNA, most likely via groove binding | no solubility issues were observed
